Laboratory results reported in patent EP0411395A2, “Use of ACE inhibitors for atherosclerosis-prophylaxis” (THERA PATENT-VERWALTUNGS-GmbH, priority 1989, dated 1991).

Assay: Three-year placebo-controlled study in overweight persons: Doppler sonographic maximal blood flow velocity in the Arteria dorsalis pedis as parameter of atherosclerosis
Assay type: in vivo, Patienten
Conditions: for MAXIMALE BLUTSTRÖMUNGSGESCHWINDIGK.: 2 x 3 mg tgl. oral, Arteria dorsalis pedis
Excerpt: Es wurden 122 übergewichtige Personen ausgesucht, die im Mittel 25 % Übergewicht hatten. Diese Patienten gaben nach Aufklärung ihr Einverständnis, an dieser Studie über 3 Jahre teilzunehmen. Sie hatten bereits 5 bis 10 Versuche einer Gewichtsabnahme hinter sich, die alle […] verlaufen waren. Ein Diabetes mellitus war nach der Definition des WHO-Reports (Techn. Rep. Ser. 646, 1 bis 80, 1980) bei diesen Patienten ausgeschlossen. Sie wurden in zwei gleich starke Gruppen eingeteilt, so daß nach Alter sowie Ausmaß und Dauer des Übergewichts kein Unterschied bestand. Die Patienten wurden in halbjährlichen Abständen ambulant kontrolliert. Wie zu Beginn wurden bei diesen Kontrollen folgende Blutwerte gemessen: Blutsenkung, Blutbild, Nüchternblutzucker, IGTT, Gewicht, Cholesterin und Triglyzeride, Serumglutamat-Oxalat-Transaminase (SGOT), Serumglutamat-Pyruvat-Transaminase (SGPT). Damit wurden den Stoffwechsel beeinträchtigende Krankheiten ausgeschlossen. Als Parameter der Atherosklerose wurde die dopplersonographisch bestimmte maximale Blutströmungsgeschwindigkeit in der Arteria dorsalis pedis verwendet. Alle Patienten hatten eine schmerzfreie Gehstrecke von über 200 m, die Arteria dorsalis pedis war gut tastbar. Oszillographisch fand sich kein Anhalt für eine Mediasklerose. Das Vorliegen einer Neuropathie wurde mit den üblichen klinischen Methoden ausgeschlossen.
Die erste Gruppe erhielt 2 x 3 mg Captopril täglich, die zweite Gruppe entsprechend Placebo. Die Patienten hatten die Auflage, keine den Stoffwechsel beeinträchtigenden Medikamente wie z.B. Diuretika, Betablocker oder dergleichen einzunehmen. In beiden Gruppen schieden über den Zeitraum von 3 Jahren 28 Patienten aus verschiedenen Gründen aus. Die Gruppen veränderten sich dadurch jedoch nicht so sehr, daß sie statistisch nicht mehr auswertbar gewesen wären. […] Die Ergebnisse des Versuchs sind in der nachstehenden Tabelle 1 dargestellt. Tabelle I

Structure (SMILES): C[C@H](CS)C(=O)N1CCC[C@H]1C(=O)O [Captopril, 1-(2S)-3-Mercapto-2-methylpropionyl -L-prolin]
- MAXIMALE BLUTSTRÖMUNGSGESCHWINDIGK. (1985 - 1 (start), Risikopatienten (Stoffwechselgesunde Übergewichtige), n=63): 13,6 ± 0,4 cm/s
- MAXIMALE BLUTSTRÖMUNGSGESCHWINDIGK. (1986 - 2, Risikopatienten, n=60): 13,5 ± 0,3 cm/s
- MAXIMALE BLUTSTRÖMUNGSGESCHWINDIGK. (1987 - 2, Risikopatienten, n=54): 13,4 ± 0,2 cm/s
- MAXIMALE BLUTSTRÖMUNGSGESCHWINDIGK. (1988 - 1 (after 3 years), Risikopatienten, n=48): 13,5 ± 0,2 cm/s
- Abfall der maximalen Blutströmungsgeschwindigkeit (nach 3 Jahren, versus Placebo, 2 x 3 mg Captopril täglich, p 0,05, Student's t-Test): signifikant geringerer Abfall
